Test results published in PMC8364686, “Safety, tolerability, pharmacokinetics and pharmacodynamics of single oral doses of BI 187004, an inhibitor of 11beta-hydroxysteroid dehydrogenase-1, in healthy male volunteers with overweight or obesity” (Clinical Diabetes and Endocrinology, 2021).
“And” between values parts separate entries of the source, which are not always exact repeats. Equal entries are not always repeated.

Assay: Plasma pharmacokinetics of BI 187004 after single oral doses (LC–MS/MS)
Conditions: for BI 187004 plasma concentrations: individual subjects
[1] = male, human, plasma, po, 2.5 mg
[2] = male, human, plasma, po, 2.5 mg, Plasma concentration Mean, 2.5 mg single oral
[3] = male, human, plasma, po, 2.5 mg, Plasma concentration Median, 2.5 mg single oral
[4] = male, human, plasma, po, 2.5 mg, Plasma concentration gMean, 2.5 mg single oral

N#Cc1ccc2c(c1)[C@H]1CCCN(C(=O)c3ccc4[nH]cnc4c3)[C@H]1C2 [BI 187004]
Plasma concentration, individual subjects (2.5 mg single oral, planned time 0.5 h): BLQ (Below Limit of Quantification (<3.00 nmol/L)) and 5.84 nmol/L and 15.8 nmol/L and 8.84 nmol/L | Plasma concentration, individual subjects (2.5 mg single oral, planned time 1 h): BLQ (Below Limit of Quantification (<3.00 nmol/L)) and 6.77 nmol/L and 28.4 nmol/L and 17.6 nmol/L and 7.86 nmol/L and 5.64 nmol/L | Plasma concentration, individual subjects (2.5 mg single oral, planned time 1.5 h): BLQ (Below Limit of Quantification (<3.00 nmol/L)) and 6.06 nmol/L and 17.2 nmol/L and 14.9 nmol/L and 12.1 nmol/L and 5.62 nmol/L | Plasma concentration, individual subjects (2.5 mg single oral, planned time 2 h): BLQ (Below Limit of Quantification (<3.00 nmol/L)) and 4.97 nmol/L and 13.8 nmol/L and 11.0 nmol/L and 9.41 nmol/L and 4.67 nmol/L | Plasma concentration, individual subjects (2.5 mg single oral, planned time 2.5 h): BLQ (Below Limit of Quantification (<3.00 nmol/L)) and 4.45 nmol/L and 12.5 nmol/L and 10.1 nmol/L and 8.45 nmol/L | Plasma concentration, individual subjects (2.5 mg single oral, planned time 3 h): BLQ (Below Limit of Quantification (<3.00 nmol/L)) and 3.48 nmol/L and 11.9 nmol/L and 8.37 nmol/L and 6.66 nmol/L and 3.95 nmol/L | Plasma concentration, individual subjects (2.5 mg single oral, planned time 4 h): BLQ (Below Limit of Quantification (<3.00 nmol/L)) and 3.40 nmol/L and 10.7 nmol/L and 7.79 nmol/L and 6.03 nmol/L and 4.09 nmol/L | Plasma concentration, individual subjects (2.5 mg single oral, planned time 5 h): BLQ (Below Limit of Quantification (<3.00 nmol/L)) and 9.77 nmol/L and 7.70 nmol/L and 6.49 nmol/L and 3.91 nmol/L | Plasma concentration, individual subjects (2.5 mg single oral, planned time 6 h): BLQ (Below Limit of Quantification (<3.00 nmol/L)) and 7.52 nmol/L and 6.22 nmol/L and 5.34 nmol/L and 3.36 nmol/L | Plasma concentration, individual subjects (2.5 mg single oral, planned time 8 h): BLQ (Below Limit of Quantification (<3.00 nmol/L)) and 6.55 nmol/L and 5.06 nmol/L | Plasma concentration, individual subjects (2.5 mg single oral, planned time 10 h): BLQ (Below Limit of Quantification (<3.00 nmol/L)) and 5.19 nmol/L and 3.85 nmol/L and 3.08 nmol/L | Plasma concentration, individual subjects (2.5 mg single oral, planned time 12 h): BLQ (Below Limit of Quantification (<3.00 nmol/L)) and 4.76 nmol/L and 4.10 nmol/L and 3.34 nmol/L | Plasma concentration, individual subjects (2.5 mg single oral, planned time 24 h): BLQ (Below Limit of Quantification (<3.00 nmol/L)) and 6.66 nmol/L and 5.03 nmol/L and 3.69 nmol/L and 3.73 nmol/L | Plasma concentration, individual subjects (2.5 mg single oral, planned time 36 h): BLQ (Below Limit of Quantification (<3.00 nmol/L)) and 3.88 nmol/L | Plasma concentration, individual subjects (2.5 mg single oral, planned time 48 h): BLQ (Below Limit of Quantification (<3.00 nmol/L)) and 5.01 nmol/L and 4.22 nmol/L and 3.14 nmol/L | Plasma concentration, individual subjects (2.5 mg single oral, planned time 72 h): BLQ (Below Limit of Quantification (<3.00 nmol/L)) and 3.91 nmol/L | Plasma concentration, individual subjects (2.5 mg single oral, planned time 96 h): BLQ (Below Limit of Quantification (<3.00 nmol/L)) | Plasma concentration, individual subjects (2.5 mg single oral, planned time –0.5 h): BLQ (Below Limit of Quantification (<3.00 nmol/L)) | CL/F gMean (%gCV) (5 mg single oral dose): 5.82 (23.0) L/h | Plasma concentration, individual subjects (5 mg single oral, planned time 0.5 h): 17.6 nM and 16.1 nM | Plasma concentration, individual subjects (5 mg single oral, planned time 1 h): 139 nM and 113 nM | Plasma concentration, individual subjects (5 mg single oral, planned time 1.5 h): 137 nM and 105 nM | Plasma concentration, individual subjects (5 mg single oral, planned time 2 h): 125 nM and 89.1 nM | Plasma concentration, individual subjects (5 mg single oral, planned time 2.5 h): 113 nM and 99.4 nM | Plasma concentration, individual subjects (5 mg single oral, planned time 3 h): 104 nM and 89.4 nM | Plasma concentration, individual subjects (5 mg single oral, planned time 4 h): 97.2 nM and 80.1 nM | Plasma concentration, individual subjects (5 mg single oral, planned time 5 h): 88.2 nM and 69.3 nM | Plasma concentration, individual subjects (5 mg single oral, planned time 6 h): 74.1 nM and 59.0 nM and 90.2 nM | Plasma concentration, individual subjects (5 mg single oral, planned time 8 h): 67.1 nM and 53.5 nM and 81.4 nM | Plasma concentration, individual subjects (5 mg single oral, planned time 10 h): 63.2 nM and 54.2 nM and 38.5 nM and 58.5 nM | Plasma concentration, individual subjects (5 mg single oral, planned time 12 h): 54.1 nM and 51.5 nM and 32.5 nM | Plasma concentration, individual subjects (5 mg single oral, planned time 24 h): 30.9 nM and 21.5 nM | Plasma concentration, individual subjects (5 mg single oral, planned time 36 h): 19.4 nM and 14.0 nM and 9.68 nM | Plasma concentration, individual subjects (5 mg single oral, planned time 48 h): 20.9 nM and 11.6 nM and 10.6 nM | Plasma concentration, individual subjects (5 mg single oral, planned time 72 h): 12.4 nM and 5.72 nM and 5.44 nM | Plasma concentration, individual subjects (5 mg single oral, planned time 96 h): 7.71 nM and 4.37 nM and 3.26 nM | Plasma concentration, individual subjects (5 mg single oral, planned time –0.5 h): BLQ (Below Limit of Quantification (<3.00 nmol/L)) | CL/F gMean (%gCV) (10 mg single oral dose): 4.93 (29.2) L/h | Plasma concentration, individual subjects (10 mg single oral, planned time –0.5 h): BLQ (Below Limit of Quantification (<3.00 nmol/L)) | CL/F gMean (%gCV) (20 mg single oral dose): 4.70 (41.2) L/h | BI 187004 plasma concentrations (20 mg single oral, planned time 72 h): BLQ (Below Limit of Quantification (<3.00 nmol/L)) | BI 187004 plasma concentrations (20 mg single oral, planned time 96 h): BLQ (Below Limit of Quantification (<3.00 nmol/L)) | BI 187004 plasma concentrations (20 mg single oral, planned time –0.5 h): BLQ (Below Limit of Quantification (<3.00 nmol/L)) | CL/F gMean (%gCV) (40 mg single oral dose): 4.50 (36.1) L/h | BI 187004 plasma concentrations (40 mg single oral, planned time –0.5 h): BLQ (Below Limit of Quantification (<3.00 nmol/L)) | CL/F gMean (%gCV) (80 mg single oral dose): 4.56 (40.2) L/h | BI 187004 plasma concentrations (80 mg single oral, planned time –0.5 h): BLQ (Below Limit of Quantification (<3.00 nmol/L)) | CL/F gMean (%gCV) (160 mg single oral dose): 4.21 (19.5) L/h | BI 187004 plasma concentrations (160 mg single oral, planned time 96 h): BLQ (Below Limit of Quantification (<3.00 nmol/L)) | BI 187004 plasma concentrations (160 mg single oral, planned time –0.5 h): BLQ (Below Limit of Quantification (<3.00 nmol/L)) | Time to Cmax, single subject (subject 64) (240 mg): 24 h | CL/F gMean (%gCV) (240 mg single oral dose): 6.44 (53.4) L/h | BI 187004 plasma concentrations (240 mg single oral, planned time -0.5 h): BLQ (Below Limit of Quantification (<3.00 nmol/L)) | CL/F gMean (%gCV) (360 mg single oral dose): 5.48 (25.4) L/h | BI 187004 plasma concentrations (360 mg single oral, planned time –0.5 h): BLQ (Below Limit of Quantification (<3.00 nmol/L)) | Apparent clearance (CL/F), range across dose groups (5–360 mg): 4.21—6.44 L/h | concentration at 96 h (male, human, in vivo, po, 240 mg): 18.4 nM | Vd/F (male, human, plasma, oral): 87.9 to 281 L | concentration at 10 h (male, human, plasma, oral, 10 mg, Plasma C10 gMean (range), 10 mg single dose): 174 nM | concentration at 24 h (male, human, plasma, oral, 10 mg, Plasma C24 gMean (range), 10 mg single dose, 24 h): 71.3 nM | concentration at 10 h (male, human, plasma, oral, 20 mg, Plasma C10 gMean (range), 20 mg single dose): 382 nM | concentration at 24 h (male, human, plasma, oral, 20 mg, Plasma C24 gMean (range), 20 mg single dose, 24 h): 161 nM | concentration at 10 h (male, human, plasma, oral, 40 mg, Plasma C10 gMean (range), 40 mg single dose): 796 nM | concentration at 24 h (male, human, plasma, oral, 40 mg, Plasma C24 gMean (range), 40 mg single dose, 24 h): 321 nM | concentration at 10 h (male, human, plasma, oral, 80 mg, Plasma C10 gMean (range), 80 mg single dose): 1530 nM | concentration at 24 h (male, human, plasma, oral, 80 mg, Plasma C24 gMean (range), 80 mg single dose, 24 h): 878 nM | concentration at 10 h (male, human, plasma, oral, 160 mg, Plasma C10 gMean (range), 160 mg single dose): 3000 nM | concentration at 24 h (male, human, plasma, oral, 160 mg, Plasma C24 gMean (range), 160 mg single dose, 24 h): 1630 nM | concentration at 10 h (male, human, plasma, oral, 240 mg, Plasma C10 gMean (range), 240 mg single dose): 2600 nM | concentration at 24 h (male, human, plasma, oral, 240 mg, Plasma C24 gMean (range), 240 mg single dose, 24 h): 2130 nM | concentration at 10 h (male, human, plasma, oral, 360 mg, Plasma C10 gMean (range), 360 mg single dose): 5300 nM | concentration at 24 h (male, human, plasma, oral, 360 mg, Plasma C24 gMean (range), 360 mg single dose, 24 h): 2690 nM | Tmax (male, human, plasma, po): 1 to 1.5 h | AUC(0-t) [1]: 0.212 µM·h | Cmax [1]: 11.8 nM | Tmax [1]: 1 h | concentration at 24 h (male, human, plasma, po, 2.5 mg, C24 gMean (%gCV), 2.5 mg single oral dose): 4.54 nM | concentration at 1 h [2]: 13.3 nM | concentration at 1.5 h [2]: 11.2 nM | concentration at 2 h [2]: 8.77 nM | concentration at 2.5 h [2]: 7.99 nM | concentration at 3 h [2]: 6.87 nM | concentration at 4 h [2]: 6.4 nM | concentration at 5 h [2]: 6.97 nM | concentration at 6 h [2]: 5.61 nM | concentration at 10 h [2]: 4.53 nM | concentration at 12 h [2]: 4.66 nM | concentration at 24 h (male, human, plasma, po, 2.5 mg, Plasma concentration Mean, 2.5 mg single oral, 24 h): 4.66 nM | concentration at 48 h [2]: 3.99 nM | concentration at 1 h [3]: 7.86 nM | concentration at 1.5 h [3]: 12.1 nM | concentration at 2 h [3]: 9.41 nM | concentration at 2.5 h [3]: 8.45 nM | concentration at 3 h [3]: 6.66 nM | concentration at 4 h [3]: 6.03 nM | concentration at 5 h [3]: 7.1 nM | concentration at 6 h [3]: 5.78 nM | concentration at 10 h [3]: 4.52 nM | concentration at 12 h [3]: 4.43 nM | concentration at 24 h (male, human, plasma, po, 2.5 mg, Plasma concentration Median, 2.5 mg single oral, 24 h): 4.19 nM | concentration at 48 h [3]: 3.9 nM | concentration at 1 h [4]: 10.8 nM | concentration at 1.5 h [4]: 10.1 nM | concentration at 2 h [4]: 8.02 nM
